Patent publication US11457629B2, “Heteroarylphenylaminoquinolines and analogues” (Bayer Aktiengesellschaft, priority 2017, dated 2022)
Where two headings read alike, the source gives them in different places.

Assays:
[1] = Log P by HPLC on reversed phase columns, method [a] (acidic range, 0.1% formic acid)
Protocol: In the following, measurement of Log P values was performed according to EEC directive 79/831 Annex V.A8 by HPLC (High Performance Liquid Chromatography) on reversed phase columns with the following methods: • ^[a]
If more than one Log P value is available within the same method, all the values are given and separated by “+”.
Calibration was done with straight-chain alkan2-ones (with 3 to 16 carbon atoms) with known Log P values (measurement of Log P values using retention times with linear interpolation between successive alkanones).

Leptnosphaeria nodorum = assay: Example D: Leptnosphaeria nodorum in vitro cell test; assay type: cell-based; conditions: 144 h, read-out: efficacy (inhibition of fungal growth)
Pyricularia oryzae = assay: microbe, parasite or virus in culture; assay type: cell-based; conditions: 120 h, read-out: efficacy (inhibition of fungal growth)
[2] = system: Colletotrichum lindemuthianum; assay: Example F: Colletotrichum lindemuthianum in vitro cell test; assay type: cell-based; conditions: 144 h, 20 ppm of active ingredient, 6 days incubation, read-out: efficacy (inhibition of fungal growth)
[3] = logP, HPLC on reversed phase columns, method [a]: acidic range
[4] = LogP, method [a] / Method A: LC-UV, acidic range
[5] = 20 ppm of active ingredient, 6 days incubation

Structure (SMILES)	chromatographic logP [1, 4]	other results
Cc1nc2c(F)c(F)ccc2cc1Nc1ccccc1-c1ccn(C(C)C)n1 [Example I-043, 7,8-difluoro-N-[2-(1-isopropylpyrazol-3-yl)phenyl]-2-methyl-quinolin-3-amine]	–	chromatographic logP [1, 3]: 5; inhibition at 20 ppm (Leptnosphaeria nodorum): 80 to 89%; inhibition at 20 ppm (Pyricularia oryzae): 90 to 100%
Cc1nc2c(F)c(F)ccc2cc1N(C)c1ccccc1-c1ccn(C(C)C)n1 [Example I-046, 7,8-difluoro-N-[2-(1-isopropylpyrazol-3-yl)phenyl]-N,2-dimethyl-quinolin-3-amine]	4.36	chromatographic logP [1, 3]: 4.36; inhibition at 20 ppm (Pyricularia oryzae): 80 to 89%
Cc1nc2c(F)c(F)ccc2cc1Nc1cccc(F)c1-c1ccnn1C [Example I-050, 7,8-difluoro-N-[3-fluoro-2-(1-methyl-1H-pyrazol-5-yl)phenyl]-2-methylquinolin-3-amine]	3.07	chromatographic logP [1, 3]: 3.09; inhibition at 20 ppm (Leptnosphaeria nodorum; [5]): 90 to 100%; inhibition at 20 ppm (Pyricularia oryzae): 90 to 100%; inhibition at 20 ppm [2]: 90 to 100%
COC(=O)c1ccn(-c2ccccc2Nc2cnc3ccccc3c2)n1 [Example I-062, methyl 1-[2-(3-quinolylamino)phenyl]pyrazole-3-carboxylate]	2.16	chromatographic logP [1, 3]: 2.16
COC(=O)c1ccnn1-c1ccccc1Nc1cnc2ccccc2c1 [Example I-064, methyl 1-[2-(quinolin-3-ylamino)phenyl]-1H-pyrazole-5-carboxylate]	2.02	chromatographic logP [1, 3]: 2.02; inhibition at 20 ppm (Leptnosphaeria nodorum; [5]): 70 to 79%; inhibition at 20 ppm [2]: 80 to 89%
CC(C)(C)[Si](C)(C)OCc1ccnn1-c1ccccc1Nc1cnc2ccccc2c1 [Example I-069, N-{2-[5-({[tert-butyl(dimethyl)silyl]oxy}methyl)-1H-pyrazol-1-yl]phenyl}quinolin-3-amine]	4.92	chromatographic logP [1, 3]: 4.92; inhibition at 20 ppm (Leptnosphaeria nodorum; [5]): 80 to 89%
Cn1nccc1-c1c(F)cccc1Br [IXa-01, 5-(2-bromo-6-fluorophenyl)-1-methyl-1H-pyrazole]	2.4	–
CC(C)n1nccc1-c1c(F)cccc1Br [IXa-02, 5-(2-bromo-6-fluorophenyl)-1-isopropyl-1H-pyrazole]	3.09	–
CC(C)(C)n1nccc1-c1c(F)cccc1Br [IXa-03, 5-(2-bromo-6-fluorophenyl)-1-tert-butyl-1H-pyrazole]	3.61	–
CCn1nccc1-c1c(F)cccc1Br [IXa-04, 5-(2-bromo-6-fluorophenyl)-1-ethyl-1H-pyrazole]	2.71	–
Fc1cccc(Br)c1-c1ccnn1CCc1ccccc1 [IXa-05, 5-(2-bromo-6-fluorophenyl)-1-(2-phenylethyl)-1H-pyrazole]	3.83	–
OCc1ccnn1-c1c(F)cccc1Br [IXb-01, [1-(2-bromo-6-fluorophenyl)-1H-pyrazol-5-yl]methanol]	1.27	–
CC(C)(C)[Si](C)(C)OCc1ccnn1-c1c(F)cccc1Br [IXb-02, 1-(2-bromo-6-fluorophenyl)-5-({[tert-butyl(dimethyl)silyl]oxy}methyl)-1H-pyrazole]	4.96	–
COC(=O)c1ccnn1-c1c(F)cccc1Br [IXb-03, methyl 1-(2-bromo-6-fluorophenyl)-1H-pyrazole-5-carboxylate]	2.53	–
CC(C)(C)[Si](C)(C)OCc1ccnn1-c1c(N)cccc1F [IXb-04, 2-[5-({[tert-butyl(dimethyl)silyl]oxy}methyl)-1H-pyrazol-1-yl]-3-fluoroaniline]	4.1	–
Fc1cccc2cc(Nc3ccccc3Br)cnc12 [N-(2-bromophenyl)-8-fluoro-quinolin-3-amine]	3.27	–

Structure (SMILES)	chromatographic logP [1, 4]	other results
CC1(C)OB(c2ccccc2Nc2cnc3c(F)cccc3c2)OC1(C)C [VI-01, 8-fluoro-N-[2-(4,4,5,5-tetramethyl-1,3,2-dioxaborolan-2-yl)phenyl]quinolin-3-amine]	4.87	–
CC1(C)OB(c2ccccc2Nc2cnc3ccccc3c2)OC1(C)C [VI-02, N-[2-(4,4,5,5-tetramethyl-1,3,2-dioxaborolan-2-yl)phenyl]quinolin-3-amine]	4.29	–
CC1(C)OB(c2ccccc2Cc2cnc3ccccc3c2)OC1(C)C [VI-03, 3-[2-(4,4,5,5-tetramethyl-1,3,2-dioxaborolan-2-yl)benzyl]quinoline]	3.39	–
CC(C)(C)OC(=O)N(c1cnc2ccccc2c1)c1ccccc1-n1nccc1C(=O)O [XX-01, 1-{2-[(tert-butoxycarbonyl)(quinolin-3-yl)amino]phenyl}-1H-pyrazole-5-carboxylic acid]	2.42	–
CC(C)(C)OC(=O)N(c1cnc2ccccc2c1)c1cccc(F)c1-n1nccc1C(=O)O [XX-02, 1-{2-[(tert-butoxycarbonyl)(quinolin-3-yl)amino]-6-fluorophenyl}-1H-pyrazole-5-carboxylic acid]	2.62	–
COC(=O)c1ccnn1-c1c(F)cccc1N(C(=O)OC(C)(C)C)c1cnc2ccccc2c1 [XX-03, methyl 1-{2-[(tert-butoxycarbonyl)(quinolin-3-yl)amino]-6-fluorophenyl}-1H-pyrazole-5-carboxylate]	3.36	–
C=C(C)c1ccnn1-c1ccccc1N(C(=O)OC(C)(C)C)c1cnc2ccccc2c1 [XX-04, tert-butyl {2-[5-(prop-1-en-2-yl)-1H-pyrazol-1-yl]phenyl}quinolin-3-ylcarbamate]	3.67	–
COC(=O)c1ccnn1-c1ccccc1N(C(=O)OC(C)(C)C)c1cnc2ccccc2c1 [XX-05, Methyl 1-(2-(tert-butoxycarbonyl(quinolin-3-yl)amino)phenyl)-1H-pyrazole-5-carboxylate]	3.19	–
CC(C)(C)OC(=O)N(c1cnc2ccccc2c1)c1ccccc1-n1nccc1C=O [XX-06, tert-butyl [2-(5-formyl-1H-pyrazol-1-yl)phenyl]quinolin-3-ylcarbamate]	3.06	–
CC(C)(C)OC(=O)N(c1cnc2ccccc2c1)c1ccccc1-n1nccc1CO[Si](C)(C)C(C)(C)C [XX-07, tert-butyl {2-[5-({[tert-butyl(dimethyl)silyl]oxy}methyl)-1H-pyrazol-1-yl]phenyl}quinolin-3-ylcarbamate]	5.84	–
CC(C)(C)OC(=O)N(c1cnc2ccccc2c1)c1cccc(F)c1-n1nccc1CO [XX-08, tert-butyl {3-fluoro-2-[5-(hydroxymethyl)-1H-pyrazol-1-yl]phenyl}quinolin-3-ylcarbamate]	2.47	–
CC(C)(C)OC(=O)N(c1cnc2ccccc2c1)c1cccc(F)c1-n1nccc1CO[Si](C)(C)C(C)(C)C [XX-09, tert-butyl {2-[5-({[tert-butyl(dimethyl)silyl]oxy}methyl)-1H-pyrazol-1-yl]-3-fluorophenyl}quinolin-3-ylcarbamate]	5.8	–
CC(C)(C)OC(=O)N(c1cnc2ccccc2c1)c1cccc(F)c1-n1nccc1C=O [XX-10, tert-butyl [3-fluoro-2-(5-formyl-1H-pyrazol-1-yl)phenyl]quinolin-3-ylcarbamate]	3.24	–
CC(C)(C)OC(=O)N(c1cnc2ccccc2c1)c1cccc(F)c1-n1nccc1C(C)(C)O [XX-11, tert-butyl {3-fluoro-2-[5-(2-hydroxypropan-2-yl)-1H-pyrazol-1-yl]phenyl}quinolin-3-ylcarbamate]	3.33	–
CC(C)(C)OC(=O)N(c1cnc2ccccc2c1)c1ccccc1-n1nccc1CO [XX-12, tert-butyl {2-[5-(hydroxymethyl)-1H-pyrazol-1-yl]phenyl}quinolin-3-ylcarbamate]	2.35	–
